According to the NIST ThermoML archive (doi:10.1016/j.fluid.2017.09.014):

Assay: xn = mol fraction of the nth substance listed
Conditions: Vibrating tube method

O=S=O [sulfur dioxide] + O=C=O
Conditions	mass density [kg/m3]
283.32 K, 5506 kPa, Liquid, x2 = 0.9503	916.4
283.32 K, 6002 kPa, Liquid, x2 = 0.9503	920.8
283.32 K, 6507 kPa, Liquid, x2 = 0.9503	925.6
283.32 K, 7000 kPa, Liquid, x2 = 0.9503	929.5
283.32 K, 7506 kPa, Liquid, x2 = 0.9503	934.7
283.32 K, 8008 kPa, Liquid, x2 = 0.9503	938.7
283.32 K, 9510 kPa, Liquid, x2 = 0.9503	949.7
283.32 K, 9995 kPa, Liquid, x2 = 0.9503	953.3
283.32 K, 10507 kPa, Liquid, x2 = 0.9503	956.6
283.32 K, 11007 kPa, Liquid, x2 = 0.9503	959.9
283.32 K, 12009 kPa, Liquid, x2 = 0.9503	966.2
283.32 K, 12514 kPa, Liquid, x2 = 0.9503	969.7
283.32 K, 13000 kPa, Liquid, x2 = 0.9503	972.6
283.32 K, 13536 kPa, Liquid, x2 = 0.9503	975.3
283.32 K, 14496 kPa, Liquid, x2 = 0.9503	980.8
283.32 K, 15011 kPa, Liquid, x2 = 0.9503	984.1
283.32 K, 15505 kPa, Liquid, x2 = 0.9503	986.8
283.32 K, 16044 kPa, Liquid, x2 = 0.9503	989.5
283.32 K, 16561 kPa, Liquid, x2 = 0.9503	992.4
283.32 K, 17047 kPa, Liquid, x2 = 0.9503	994.7
283.32 K, 17551 kPa, Liquid, x2 = 0.9503	996.8
283.32 K, 18520 kPa, Liquid, x2 = 0.9503	1001.7
283.32 K, 19016 kPa, Liquid, x2 = 0.9503	1004.1
283.32 K, 19496 kPa, Liquid, x2 = 0.9503	1006.2
283.32 K, 20038 kPa, Liquid, x2 = 0.9503	1008.7
283.32 K, 20507 kPa, Liquid, x2 = 0.9503	1011
283.32 K, 21035 kPa, Liquid, x2 = 0.9503	1013.2
283.32 K, 21504 kPa, Liquid, x2 = 0.9503	1015.3
283.32 K, 22046 kPa, Liquid, x2 = 0.9503	1017.6
283.32 K, 22565 kPa, Liquid, x2 = 0.9503	1019.8
283.32 K, 23052 kPa, Liquid, x2 = 0.9503	1021.8
283.32 K, 23509 kPa, Liquid, x2 = 0.9503	1023.3
283.32 K, 24535 kPa, Liquid, x2 = 0.9503	1027.4
283.32 K, 25025 kPa, Liquid, x2 = 0.9503	1029.4
283.32 K, 25509 kPa, Liquid, x2 = 0.9503	1031.3
283.32 K, 26038 kPa, Liquid, x2 = 0.9503	1033.5
283.32 K, 26503 kPa, Liquid, x2 = 0.9503	1034.9
283.32 K, 27023 kPa, Liquid, x2 = 0.9503	1037
283.32 K, 28043 kPa, Liquid, x2 = 0.9503	1040.7
283.32 K, 28527 kPa, Liquid, x2 = 0.9503	1042.4
283.32 K, 29081 kPa, Liquid, x2 = 0.9503	1044.1
283.32 K, 29470 kPa, Liquid, x2 = 0.9503	1045.7
283.32 K, 30008 kPa, Liquid, x2 = 0.9503	1047.3
283.32 K, 30506 kPa, Liquid, x2 = 0.9503	1049.6
283.32 K, 31007 kPa, Liquid, x2 = 0.9503	1050.9
283.32 K, 31500 kPa, Liquid, x2 = 0.9503	1052.8
283.32 K, 32033 kPa, Liquid, x2 = 0.9503	1054.6
283.32 K, 32516 kPa, Liquid, x2 = 0.9503	1056.2
283.32 K, 33032 kPa, Liquid, x2 = 0.9503	1057.9
283.32 K, 33527 kPa, Liquid, x2 = 0.9503	1059.6
283.32 K, 33995 kPa, Liquid, x2 = 0.9503	1060.8
283.32 K, 34989 kPa, Liquid, x2 = 0.9503	1064.3
283.32 K, 37026 kPa, Liquid, x2 = 0.9503	1070.5
283.32 K, 38461 kPa, Liquid, x2 = 0.9503	1074.6
283.32 K, 39056 kPa, Liquid, x2 = 0.9503	1076.1
283.32 K, 39558 kPa, Liquid, x2 = 0.9503	1077.4
283.32 K, 40729 kPa, Liquid, x2 = 0.9503	1080.4
283.33 K, 4307 kPa, Liquid, x2 = 0.9503	902.3
283.33 K, 4499 kPa, Liquid, x2 = 0.9503	904.4
283.33 K, 8543 kPa, Liquid, x2 = 0.9503	942.8
283.33 K, 9019 kPa, Liquid, x2 = 0.9503	946.2
283.33 K, 11512 kPa, Liquid, x2 = 0.9503	963
283.33 K, 14003 kPa, Liquid, x2 = 0.9503	978.2
283.33 K, 18078 kPa, Liquid, x2 = 0.9503	999.5
283.33 K, 24074 kPa, Liquid, x2 = 0.9503	1025.3
283.33 K, 40145 kPa, Liquid, x2 = 0.9503	1078.8
283.33 K, 40601 kPa, Liquid, x2 = 0.9503	1080.3
283.33 K, 40700 kPa, Liquid, x2 = 0.9503	1080.6
297.4 K, 4803 kPa, Gas, x2 = 0.9478	134.4
297.41 K, 100 kPa, Gas, x2 = 0.9478	1.8
297.41 K, 200 kPa, Gas, x2 = 0.9478	3.6
297.41 K, 2012 kPa, Gas, x2 = 0.9478	42.1
297.41 K, 2215 kPa, Gas, x2 = 0.9478	47.2
297.42 K, 51 kPa, Gas, x2 = 0.9478	1
297.42 K, 397 kPa, Gas, x2 = 0.9478	7.5
297.42 K, 502 kPa, Gas, x2 = 0.9478	9.4
297.42 K, 1817 kPa, Gas, x2 = 0.9478	37.6
297.42 K, 2421 kPa, Gas, x2 = 0.9478	53
297.42 K, 2588 kPa, Gas, x2 = 0.9478	57
297.42 K, 2854 kPa, Gas, x2 = 0.9478	64.1
297.42 K, 3638 kPa, Gas, x2 = 0.9478	87.4
297.42 K, 3822 kPa, Gas, x2 = 0.9478	93.7
297.42 K, 3996 kPa, Gas, x2 = 0.9478	99.9
297.42 K, 4401 kPa, Gas, x2 = 0.9478	115.6
297.42 K, 4507 kPa, Gas, x2 = 0.9478	120.1
297.42 K, 4600 kPa, Gas, x2 = 0.9478	124.4
297.42 K, 4703 kPa, Gas, x2 = 0.9478	129.2
297.43 K, 3223 kPa, Gas, x2 = 0.9478	74.6
297.43 K, 3396 kPa, Gas, x2 = 0.9478	79.8
297.43 K, 4206 kPa, Gas, x2 = 0.9478	107.7
297.44 K, 3064 kPa, Gas, x2 = 0.9478	70.1
298.09 K, 26076 kPa, Liquid, x2 = 0.9478	980
298.09 K, 26503 kPa, Liquid, x2 = 0.9478	982.1
298.1 K, 7001 kPa, Liquid, x2 = 0.9478	819.7
298.1 K, 9007 kPa, Liquid, x2 = 0.9478	854
298.1 K, 21016 kPa, Liquid, x2 = 0.9478	954.5
298.1 K, 21994 kPa, Liquid, x2 = 0.9478	959.8
298.1 K, 22537 kPa, Liquid, x2 = 0.9478	962.6
298.1 K, 23522 kPa, Liquid, x2 = 0.9478	967.7
298.1 K, 24029 kPa, Liquid, x2 = 0.9478	970.2
298.1 K, 24505 kPa, Liquid, x2 = 0.9478	972.6
298.1 K, 25050 kPa, Liquid, x2 = 0.9478	975.1
298.1 K, 25593 kPa, Liquid, x2 = 0.9478	977.9
298.1 K, 27025 kPa, Liquid, x2 = 0.9478	984.3
298.1 K, 27508 kPa, Liquid, x2 = 0.9478	986.6
298.1 K, 27973 kPa, Liquid, x2 = 0.9478	988.6
298.1 K, 28400 kPa, Liquid, x2 = 0.9478	990.6
298.1 K, 32016 kPa, Liquid, x2 = 0.9478	1004.6
298.1 K, 32518 kPa, Liquid, x2 = 0.9478	1006.5
298.1 K, 33068 kPa, Liquid, x2 = 0.9478	1008.6
298.1 K, 33435 kPa, Liquid, x2 = 0.9478	1009.8
